Reference: ChEMBL document CHEMBL1146761, “Synthesis and biological activity of novel platinum(II) complexes of glutamate tethered to hydrophilic hematoporphyrin derivatives” (Bioorg Med Chem Lett, 2004)

What was measured:
Mus musculus [1] = experiment: In vivo antitumor activity of compound against leukemia L1210 cell line at 4 mg/kg; format: functional, organism-based; design: dose 4 mg/kg
L1210 = experiment: In vitro cytotoxicity activity of compound against leukemia L1210 cell line; format: functional, cell-based, Mus musculus
Mus musculus [2] = experiment: In vivo antitumor activity of compound against leukemia L1210 cell line at 60/30 mg/kg; value expressed as 97/107; format: functional
Mus musculus [3] = experiment: In vivo antitumor activity of compound against leukemia L1210 cell line at 60/30 mg/kg; value expressed as 102/106; format: functional
Mus musculus [4] = experiment: In vivo antitumor activity of compound against leukemia L1210 cell line at 40 mg/kg; format: functional, organism-based; design: dose 40 mg/kg

CISPLATIN was tested, and the T/C (Mus musculus [1]) was 184%.

With COCCOC(C)c1c(C)c2cc3[nH]c(cc4nc(cc5nc(cc1[nH]2)C(C)=C5CCC(=O)O)C(CCC(=O)O)=C4C)c(C)c3C(C)OCCOC (configuration not stated) the IC50 (L1210; Mus musculus, L1210) was 2.6 µM and the T/C (Mus musculus [2]) was 107%.

Compound CARBOPLATIN [listing 1 of 2 here] has an IC50 (L1210; l1210) of 9.92 µM.

COCCOCCOCCOC(C)c1c(C)c2cc3[nH]c(cc4nc(cc5nc(cc1[nH]2)C(C)=C5CCC(=O)O)C(CCC(=O)O)=C4C)c(C)c3C(C)OCCOCCOCCOC (configuration not stated) gave a T/C (Mus musculus [3]) of 106% and an IC50 (L1210; Mus musculus, L1210) of 6.6 µM.

CARBOPLATIN [listing 2 of 2 here] gave a T/C (Mus musculus [4]) of 168%.
